Assay results as given in patent publication US7781421B2, “Neuroactive 13, 24-cyclo-18, 21-dinorcholanes and structurally related pentacyclic steriods” (Washington University, priority 2003, dated 2010).
Read-outs that look alike come from different tables or passages of the source.

Columns and labels:
[1] = molecular target: GABAA receptor ([35S]-TBPS binding site, rat brain cortical membranes); assay: Displacement of [35S]-TBPS binding, rat brain cortical membranes; details: 5 μM GABA, 2 nM [35S]-TBPS; ± standard error of the means
In short: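 Rat cortical P2 membranes (0.5 mg/mL protein) incubated 2 h at room temperature with 2 nM [35S]-TBPS, 5 μM GABA and steroid (1 nM–10 μM) in 200 mM NaCl/50 mM potassium phosphate, pH 7.4. Filter-bound radioactivity counted; IC50 from Hill equation fit, triplicate points.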

Xenopus laevis tadpoles = assay: Tadpole loss of righting (LRR) and swimming (LSR) reflexes; type: in vivo; details: 3 h equilibration at room temperature; for EC50: read-out: LSR EC50 (loss of swimming response)
In short: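 Groups of 10 early prelimb-bud Xenopus laevis tadpoles were held for 3 h at room temperature in oxygenated Ringer's containing compound (DMSO ≤0.1%). Loss of righting was scored as failure to right within 5 sec after flipping, and loss of swimming as failure to swim when touched. EC50 came from a Hill equation fit.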

[2] = molecular target: T1, rat α1β2γ2 GABAA Receptor (Rattus norvegicus, UniProt P18508+P62813+P63138, INS375LLRMFSFK); assay: Xenopus oocyte two-electrode voltage-clamp electrophysiology; type: cell-based; details: for Oocyte electrophysiology, ratio of currents in presence/absence of compound, 0.1 μM: 0.1 μM compound co-applied with 2 μM GABA; for Oocyte electrophysiology, ratio of currents in presence/absence of compound, 0.1 μM / Oocyte electrophysiology, ratio of currents in presence/absence of compound, 1 μM / Oocyte electrophysiology, ratio of currents in presence/absence of compound, 10 μM: −70 mV; for Oocyte electrophysiology, ratio of currents in presence/absence of compound, 1 μM: 1 μM compound co-applied with 2 μM GABA; for Oocyte electrophysiology, ratio of currents in presence/absence of compound, 10 μM: 10 μM compound co-applied with 2 μM GABA; for Gating (10 μM), ratio of compound only current/2 μM GABA current: direct current gated by 10 μM compound in the absence of GABA
T1 construct: from linearized pBluescript vectors containing receptor coding regions; expressed in transfected cells; host or cells: Xenopus laevis oocytes injected with in vitro transcribed capped mRNA
In short: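 Oocytes injected with rat α1, β2, γ2L mRNA, voltage-clamped at −70 mV 2-5 days later in ND96. Compounds co-applied with 2 μM GABA for 20 s; peak current ratio with/without compound, n≥4 oocytes. (G): current from 10 μM compound alone, as ratio to 2 μM GABA current.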

T1 sequence (P62813 28-455, stated change not applied): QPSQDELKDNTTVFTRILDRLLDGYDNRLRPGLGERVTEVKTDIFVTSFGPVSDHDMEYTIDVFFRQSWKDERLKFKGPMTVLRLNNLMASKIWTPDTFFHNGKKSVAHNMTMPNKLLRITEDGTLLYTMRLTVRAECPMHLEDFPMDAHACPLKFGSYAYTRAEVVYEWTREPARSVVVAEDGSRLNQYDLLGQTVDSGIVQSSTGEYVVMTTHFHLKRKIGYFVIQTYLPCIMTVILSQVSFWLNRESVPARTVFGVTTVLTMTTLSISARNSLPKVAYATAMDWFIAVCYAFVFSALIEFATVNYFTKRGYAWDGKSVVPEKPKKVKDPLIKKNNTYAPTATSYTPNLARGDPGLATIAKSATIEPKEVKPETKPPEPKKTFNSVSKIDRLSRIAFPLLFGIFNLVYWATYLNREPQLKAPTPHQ
T1 sequence (P63138 26-474, stated change not applied): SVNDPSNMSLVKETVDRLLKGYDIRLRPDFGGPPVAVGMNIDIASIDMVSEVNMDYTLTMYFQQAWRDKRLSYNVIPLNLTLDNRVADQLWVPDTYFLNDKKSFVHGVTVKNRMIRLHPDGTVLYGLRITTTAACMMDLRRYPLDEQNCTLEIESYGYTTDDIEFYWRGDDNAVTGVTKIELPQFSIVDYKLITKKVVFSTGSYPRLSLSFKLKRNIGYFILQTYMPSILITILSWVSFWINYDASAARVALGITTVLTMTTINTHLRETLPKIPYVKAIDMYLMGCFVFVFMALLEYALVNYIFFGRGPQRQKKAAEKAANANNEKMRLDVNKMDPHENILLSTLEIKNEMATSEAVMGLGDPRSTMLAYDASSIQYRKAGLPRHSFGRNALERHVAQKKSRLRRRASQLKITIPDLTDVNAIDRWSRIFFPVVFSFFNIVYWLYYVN
T1 sequence (P18508 with tags, fused parts or gaps INS375LLRMFSFK): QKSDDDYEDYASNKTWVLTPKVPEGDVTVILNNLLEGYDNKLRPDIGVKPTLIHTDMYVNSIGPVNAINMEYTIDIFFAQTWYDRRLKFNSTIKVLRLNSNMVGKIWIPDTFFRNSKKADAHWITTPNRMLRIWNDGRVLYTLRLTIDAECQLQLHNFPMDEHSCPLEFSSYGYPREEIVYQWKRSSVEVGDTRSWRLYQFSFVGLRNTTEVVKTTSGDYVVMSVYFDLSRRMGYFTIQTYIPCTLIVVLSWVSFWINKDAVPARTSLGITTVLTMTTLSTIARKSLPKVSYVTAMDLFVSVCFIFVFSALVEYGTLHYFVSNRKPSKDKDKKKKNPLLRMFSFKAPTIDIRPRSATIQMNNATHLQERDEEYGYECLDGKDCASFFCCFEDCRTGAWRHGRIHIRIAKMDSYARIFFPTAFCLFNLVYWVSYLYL

Compound | IC50 [1] [nM] | LRR ED50 (loss of righting response) (Xenopus laevis tadpoles) | LSR EC50 (loss of swimming response) (Xenopus laevis tadpoles) | Oocyte electrophysiology, ratio of currents in presence/absence of compound, 0.1 μM [2] | Oocyte electrophysiology, ratio of currents in presence/absence of compound, 1 μM [2] | Oocyte electrophysiology, ratio of currents in presence/absence of compound, 10 μM [2] | Gating (10 μM), ratio of compound only current/2 μM GABA current [2] | melting point [°C] | EC50 (Xenopus laevis tadpoles; Xenopus laevis, 3 h) [nM] | EC50 (Xenopus laevis tadpoles) [nM]
C[C@]12CC[C@@H](O)C[C@@H]1CCC1C3CC[C@@H]4[C@@H](C#N)CCC[C@]34CCC12 (stereo partly drawn) [Compound 40, (3α,5α,20S)-3-Hydroxy-13,24-cyclo-18,21-dinorcholane-20-carbonitrile] | 173 ± 12 | >10000 nM | None @ 10 | 1.06 ± 0.03 | 1.23 ± 0.02 | 1.27 ± 0.02 | −0.01 ± 0.01 | 250 to 251 | – | –
CC12CCC(O)CC1CCC1C2CCC23CCC(=O)C2CCC13 (stereo not drawn) [Compound 89, (3α,5α)-3-Hydroxy-18,21-cyclopregnan-20-one] | 204 ± 36 | 2630 ± 70 nM | – | 0.81 ± 0.02 | 1.02 ± 0.07 | 4.54 ± 0.64 | 0.01 ± 0.00 | 176 to 178.5 | 5480 ± 150 | –
CC12CCC(O)CC1CCC1C2CCC23CC(=O)C=CC2CCC13 (stereo not drawn) [Compound 21c, (3α,5α)-3-Hydroxy-13,24-cyclo-18,21-dinorchol-20(22)-en-23-one] | 243 ± 11 | 1280 ± 380 nM | – | 1.59 ± 0.14 | 5.53 ± 0.66 | 16.58 ± 2.45 | 0.35 ± 0.12 | 209 to 210 | – | 10000
COC1CCCC23CCC4C(CCC5CC(O)CCC54C)C2CCC13 [Compound 70, (3α,5α,20R)-20-Methoxy-13,24-cyclo-18,21-dinorcholan-3-ol] | 868 ± 78 | >10000 nM | None @ 10 | 0.74 ± 0.01 | 0.87 ± 0.02 | 1.02 ± 0.03 | 0.00 ± 0.00 | 200 to 202 | – | –
C[C@]12CC[C@@H](O)C[C@@H]1CCC1C3CC[C@@H]4CCC=C[C@]34CCC12 (stereo partly drawn) [Compound 61, (3α,5α)-13,24-Cyclo-18,21-dinorchol-23-en-3-ol] | 2000 ± 190 | None @ 10 | None @ 10 | 1.28 ± 0.08 | 1.47 ± 0.10 | 1.72 ± 0.26 | 0.19 ± 0.10 | 166.5 to 169 | – | –
